Assay results: EP3996814B1, “USE OF A HERBAL EXTRACT COMPRISING VERBASCOSIDE AND AUCUBIN FOR THE TREATMENT OF OSTEOARTHRITIS OF THE KNEE” (Labiotre S.r.l., priority 2019, dated 2021)

How the values were obtained:
[1] = Safety in the clinical study (treatment-emergent adverse events, laboratory tests); format: in vivo, human; conditions: oral 200 mg/day for 2 weeks, n = 50
Experimental: (§1) The inclusion criteria were as follows: 1) presence of symptoms for at least one month, 2) number of leukocytes in synovial fluid < 2000/ml, 3) pain on a visual analogue scale (VAS) ≥ 2 at rest and 4) duration of stiffness in the morning ≤ 30 min. The following exclusion criteria were applied: 1) pregnancy or breastfeeding, 2) history of severe renal, hepatic, cardiac, gastrointestinal or haematological diseases, 3) presence of malignant tumours, 4) presence of neurological or psychiatric disorders, 5) atopy or allergic disorders, 6) diabetes mellitus or other endocrine disorders, 7) coagulation disorders, 8) history of peptic ulcer disease, 9) use of corticosteroid in the four weeks prior to the study and 10) use of NSAIDs in the two weeks prior to the study. According to the Kellgren-Lawrence classification system, 61.3% and 38.7% of patients in the study had scores of 1 and 2, respectively.
Safety was evaluated by recording treatment-emergent adverse events and changes with respect to the baseline in clinical laboratory tests, in vital signs and in objective examinations, all of which were performed during visits at weeks 1 and 2. Clinically relevant changes in laboratory values were defined as: • aspartate aminotransferase (AST) and/or alanine transaminase (ALT) ≥ 3 × upper limit of normal (ULN), • creatinine ≥ 1.3 × ULN, • blood urea nitrogen (BUN) ≥ 2 × ULN, • decrease in haematocrit value ≥ 5 percentage points with respect to the baseline and • decrease in haemoglobin value ≥ 2 g/dl from baseline.

[2] = system: PGE2; assay: PGE2 enzyme immunoassay in LPS-stimulated neutrophils; format: cell-based, human; conditions: 5 µg/ml of LPS plus test substance 1%, 24 hours
Experimental: Human neutrophils were isolated from whole blood samples taken from 10 healthy volunteers (5 men and 5 women, mean age: 34.1 ± 3.7 years) using the EasySep™ Direct human neutrophil isolation kit ([sequence] Technologies, Vancouver, Canada). After isolation, neutrophils were resuspended at a concentration of 5 * 10^6 cells/ml in Hank's balanced saline solution (37°C) containing 10 mM of HEPES pH 7.4, 1.6 mM Ca^2+ and not Mg^2+.
Experiments were conducted on RPMI medium (RPMI: Rosewell Park Memorial Institute, cation-deficient medium Ca2+ and Mg2+ commonly used for white blood line cells) supplemented with 1% fetal bovine serum (37°C, 5% CO2, 95% humidity) after seeding neutrophils (5x10^5 cells/well) in a 96-well plate.
Evaluation of PGE2 concentrations in each well under six different experimental conditions was conducted using a commercially available competitive PGE2 enzyme immunoassay kit (GE Healthcare, Milwaukee, WI, USA). All tests were conducted three times.

[3] = system: patients with mild to moderate osteoarthritis of the knee; assay: Randomised, single-blind, active-controlled pilot clinical study, clinical endpoints (VAS, range of motion, WOMAC); format: in vivo, human; conditions: oral 200 mg/day, n = 50; for WOMAC scores Stiffness: range 0-8; for WOMAC scores Pain: range 0-20; for WOMAC scores Physical functionality: range 0-68; for WOMAC scores Total: range 0 to 96
Experimental: as §1
The study period was two weeks.
Patients (n = 150) were randomised into three study groups (1:1:1 ratio). The randomisation sequence was generated by a special software.
A total of three assessments were performed (at baseline, one week and at the end of the 2-week treatment period).
Clinical endpoints included: • 1) patient's evaluation of the arthritis pain score (VAS) at rest (range: 0-10; where 0 is no pain and 10 is maximum pain), • 2) patient's evaluation of the arthritis pain score (VAS) at movement (range: 0-10; where 0 is no pain and 10 is maximum pain), • 3) joint motion range (degrees) and • 4) WOMAC (Western Ontario and McMaster University) index score [Salaffi et al. Osteoarthritis cartilage 2003; 11: 551-60].
WOMAC score consists of sub-scales that measure pain (range: 0-20; where 0 is no pain and 20 is the maximum pain), stiffness (range: 0-8, where 0 is no stiffness and 8 is the maximum stiffness) and physical functionality (range: 0-68, where 0 is the best functionality and 68 is the worst functionality). The resulting total composite score ranges from 0 to 96.

[4] = system: substance P; assay: Serum substance P levels (ELISA) in the clinical study; conditions: oral 200 mg/day, n = 50
[5] = system: human neutrophils; assay: MTT cell viability test; format: cell-based; conditions: 1% solution, 24 hours; untreated cells = 100%
Experimental: Human neutrophils were isolated from whole blood samples taken from 10 healthy volunteers (5 men and 5 women, mean age: 34.1 ± 3.7 years) using the EasySep™ Direct human neutrophil isolation kit ([…] Technologies, Vancouver, Canada). After isolation, neutrophils were resuspended at a concentration of 5 * 10^6 cells/ml in Hank's balanced saline solution (37°C) containing 10 mM of HEPES pH 7.4, 1.6 mM Ca^2+ and not Mg^2+.
Cell viability was determined using the MTT test kit (Promega, Madison, WI, USA) according to the manufacturer's protocol (MTT: 3-(4,5-dimethylthiazol-2-yl)-2,5-diphenyltetrazolium bromide). In order to determine the cytotoxicity of the herbal extract of the invention, the cells were incubated with aqueous solutions of the herbal extract of the invention at three different concentrations (1%, 3% and 5%) for 24 hours. The cultures of the control group were not treated and the viability thereof was set to 100%. […] Int J Pharm Sei (2012) 3: 2325-2336]. […] Absorbance was subsequently measured with a microplate reader (Bio-Tek, Winooski, VT, USA) at a test wavelength of 595 nm and a reference wavelength of 690 nm. The optical density (OD) was calculated as the […]. The viability percentage was calculated using the following formula: (OD of treated sample / control OD) x 100.

SMILES: Cc1ccc(-c2cc(C(F)(F)F)nn2-c2ccc(S(N)(=O)=O)cc2)cc1 [Celecoxib]
- Gastrointestinal adverse events: Constipation [1]: 2 (4%) number of patients (percentages in brackets)
- Gastrointestinal adverse events: Nausea [1]: 2 (4%) number of patients (percentages in brackets)
- Other adverse events: Headache [1]: 3 (6%) number of patients (percentages in brackets)
- Other adverse events: Itching [1]: 1 (2%) number of patients (percentages in brackets)
- changes with respect to the baseline in laboratory safety tests [1]: no changes with respect to the baseline
- PGE2 levels [2]: 19.21 ± 2.39 pg/well
- Pain at motion, VAS (0-10) ([3]; Baseline): 3.8 ± 0.6
- Pain at rest, VAS (0-10) ([3]; Baseline): 2.9 ± 0.4
- Range of motion (degrees) ([3]; Baseline): 134 ± 10 degrees
- WOMAC scores Stiffness ([3]; Baseline): 1.4 ± 0.3
- WOMAC scores Pain ([3]; Baseline): 5.7 ± 0.8
- WOMAC scores Physical functionality ([3]; Baseline): 20.5 ± 3.2
- WOMAC scores Total ([3]; Baseline): 27.6 ± 3.8
- Pain at motion, VAS (0-10) ([3]; End of study (2 weeks)): 2.2 ± 0.4
- Pain at rest, VAS (0-10) ([3]; End of study (2 weeks)): 1.5 ± 0.4
- Range of motion (degrees) ([3]; End of study (2 weeks)): 173 ± 19 degrees
- WOMAC scores Stiffness ([3]; End of study (2 weeks)): 0.7 ± 0.1
- WOMAC scores Pain ([3]; End of study (2 weeks)): 3.0 ± 0.9
- WOMAC scores Physical functionality ([3]; End of study (2 weeks)): 11.4 ± 1.7
- WOMAC scores Total ([3]; End of study (2 weeks)): 15.1 ± 2.2
- Pain at motion, VAS (0-10) ([3]; One week): 2.9 ± 0.5
- Pain at rest, VAS (0-10) ([3]; One week): 2.0 ± 0.3
- Range of motion (degrees) ([3]; One week): 160 ± 15 degrees
- WOMAC scores Stiffness ([3]; One week): 1.0 ± 0.2
- WOMAC scores Pain ([3]; One week): 4.1 ± 0.9
- WOMAC scores Physical functionality ([3]; One week): 14.6 ± 2.1
- WOMAC scores Total ([3]; One week): 19.7 ± 2.9
- SP (serum substance P) ([4]; Baseline): 436 ± 95 pg/mL
- SP (serum substance P) ([4]; End of study (2 weeks)): 299 ± 64 pg/mL
- SP (serum substance P) ([4]; One week): 358 ± 78 † pg/ml
- cell viability (MTT), % of the control value [5]: 90 ± 2%
